As a reminder, the IC50 is the midpoint of a concentration-inhibition curve. A higher IC50 goes with weaker potency.

This note sets out measurements from patent US8193168B2, “Use of a TRPM5 inhibitor to regulate insulin and GLP-1 release” (Redpoint Bio Corporation, priority 2007, dated 2012).

Structures are written as SMILES.

Assay [1] concerns the target T1, TRPM5 (Homo sapiens, UniProt Q9NZQ8).
T1 sequence (Q9NZQ8 1-1165): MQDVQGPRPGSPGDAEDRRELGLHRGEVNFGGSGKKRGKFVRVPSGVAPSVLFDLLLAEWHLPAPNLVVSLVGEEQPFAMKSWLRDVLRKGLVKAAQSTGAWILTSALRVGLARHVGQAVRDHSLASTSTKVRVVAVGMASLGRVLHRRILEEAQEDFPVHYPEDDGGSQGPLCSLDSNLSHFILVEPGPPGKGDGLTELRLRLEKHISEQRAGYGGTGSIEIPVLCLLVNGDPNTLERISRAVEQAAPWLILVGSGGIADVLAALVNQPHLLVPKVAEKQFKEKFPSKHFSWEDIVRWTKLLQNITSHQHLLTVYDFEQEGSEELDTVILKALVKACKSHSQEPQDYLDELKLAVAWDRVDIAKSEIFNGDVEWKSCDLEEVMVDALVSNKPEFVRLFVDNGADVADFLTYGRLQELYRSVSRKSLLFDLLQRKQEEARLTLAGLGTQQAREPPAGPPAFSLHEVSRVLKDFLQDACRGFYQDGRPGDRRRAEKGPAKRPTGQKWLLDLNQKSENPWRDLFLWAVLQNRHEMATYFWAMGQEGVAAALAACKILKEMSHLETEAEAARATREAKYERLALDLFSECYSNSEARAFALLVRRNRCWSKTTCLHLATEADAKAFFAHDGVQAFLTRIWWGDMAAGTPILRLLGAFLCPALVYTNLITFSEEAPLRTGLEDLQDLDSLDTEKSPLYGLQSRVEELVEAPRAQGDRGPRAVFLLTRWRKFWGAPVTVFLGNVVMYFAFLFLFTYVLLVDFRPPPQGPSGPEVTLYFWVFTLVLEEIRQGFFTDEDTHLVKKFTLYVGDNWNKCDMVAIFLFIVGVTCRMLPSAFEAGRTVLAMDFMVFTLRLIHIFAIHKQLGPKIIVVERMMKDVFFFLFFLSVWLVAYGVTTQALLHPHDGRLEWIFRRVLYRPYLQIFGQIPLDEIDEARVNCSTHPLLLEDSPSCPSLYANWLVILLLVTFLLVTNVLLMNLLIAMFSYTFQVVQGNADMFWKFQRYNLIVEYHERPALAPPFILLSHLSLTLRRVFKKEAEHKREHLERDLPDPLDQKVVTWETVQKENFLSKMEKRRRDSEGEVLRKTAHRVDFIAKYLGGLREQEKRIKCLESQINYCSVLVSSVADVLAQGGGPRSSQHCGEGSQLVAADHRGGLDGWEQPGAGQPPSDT
As to the kind of experiment: TRPM5 inhibition (FLIPR Membrane Potential Assay). In kind it is cell-based.

The test system of assay [2] is Beta-TC-6 cells. As to the kind of experiment: Insulin release enhancement in Beta-TC-6 cells (insulin ELISA). The format is cell-based, mouse. The note with it: for Percent Enhancement of Insulin Secretion (10 μM): compound at 10 μM; for glucose dependence of stimulation of insulin release: varying glucose concentration, FIG. 3 and FIG. 7. On the procedure:
Beta-TC-6 cells are an insulin-secreting cell line derived from transgenic mice expressing the large T-antigen of simian virus 40 (SV40) in pancreatic beta-cells as described by Poitout et al., Diabetes, 44:306-313 (1995). The cell line was obtained from ATCC cell bank CAT# CRL-11506 and grown in Dulbecco's Modified Eagle's Medium (DMEM) with 15% fetal bovine serum (FBS), 4 mM glutamine, 4.5 mM glucose 1500 mg/L sodium bicarbonate and 1× penn/strep antibiotic mix in a 37° C. incubator with 5% CO2. Cultures were routinely split 1:2 twice a week with the aid of trypsin.
On the day before the assay 0.1×10^6 Beta-TC-6 cells were plated into each well of 96 well plates, and the cells cultured overnight in growth media.
On the next day, growth media was removed from the plate and the monolayers rinsed with phosphate buffered saline (PBS) and pre-incubated 30 mins at 37° C. in Krebs-Ringer Bicarbonate Buffer (KRBB) consisting of 118.5 mM NaCl, 2.54 mM CaCl2, 1.19 mM KH2PO4, 4.74 mM KCl, 25 mM NaHCO3, 1.19 mM MgSO4, 10 mM HEPES buffer and 0.1% bovine serum albumin at pH 7.4. This buffer was removed and replaced with 100 μL of the same buffer containing various insulin release modulators: including various concentrations of glucose up to 12 mM and compounds up to 100 μM. Compounds stock solutions, e.g. 10-20 mM, were diluted in DMSO. Final DMSO concentrations in incubation buffer were 0.5% or less. Vehicle controls were included. Static incubations were then performed for 2 h at 37° C. The entire incubation volume was collected after the 2 h incubation for insulin assay.
ELISA Protocol for insulin determinations. The following protocol was used for doing ELISA using the Rat/Mouse Insulin ELISA Kit from Linco Research, Inc., CAT#EZRMI-13K and Amplex® Red Hydrogen Peroxide/Peroxidase Assay Kit, CAT#A22188, and Amplex® Red reagent (10-acetyl-3,7-dihydroxyphenoxazine) CAT#A12222.
All reagents were Pre-warmed to room temperature before setting up experiment.
1. Dilute the 10× washing buffer into 1× washing buffer. 50 mL+450 mL de-ionized water. Do 1:10 dilution to the cell culture supernatant (Beta-TC-6 cell incubation).
2. Use one column (8 wells) wells for standard samples and QC1 and QC2, typically 0 and 5 ng/mL of insulin. On some plates full standard curves for insulin obtained as shown below.
3. Cover the unused wells well. Wash each well 3 times with 300 μL of 1× washing buffer each time. (2 minutes each washing step on the shaker.) Decant Wash Buffer and remove the residual amount from all wells by inverting the plate and tapping it smartly onto absorbent towels several times.
4. Add 20 μL Assay Buffer into that blank well and 10 μL into those wells for standards and samples.
5. Add 10 μL rat insulin standards and samples to the appropriate wells.
6. Add 80 μL Detection Antibody to all wells. Cover the plate and incubate at room temperature for 2 hours.
7. Tear off the plate cover and decant solutions from the plate. Tap to remove residual solutions in well.
8. Wash well 3 times with diluted wash buffer 300 μL per well per wash (2 minutes each washing step on the shaker). Tap to remove residual solutions as before.
9. Add 100 μL Enzyme Solution to each well. Cover plate with sealer and incubate with moderate shaking at room temperature for 30 min on the microtiter plate shaker.
10. Remove sealer, decant solutions from the plate and tap plate to remove the residual fluid.
11. Wash wells 6 times with diluted Wash Buffer, 300 μL per well per wash. Decant and tap after each wash to remove residual buffer.
12. Prepare 5 mL working solution of […] Amolex Red reagent containing 2.0 mM H2O2. 4.45 mL of 1× Reaction buffer+50 μL 10 mM Amplex Reagent+500 μL 20 mM H2O2.
13. Add 100 μL of the Amplex Red reagent/H2O2 to each well.
14. Incubate the reactions. Incubate at room temperature for 30 minutes, protected from light (using foil to wrap the plate). […]
Background: ELISA stands for enzyme-linked immunosorbent assay.

For assay [3], the system named is calcium-activated current in Beta TC6 cells. As to the kind of experiment: Whole-cell electrophysiology of calcium-activated current in Beta TC6 cells. As to conditions: pulsed doses, current versus time, FIG. 13. In kind it is cell-based, mouse. How it is done:
Whole-cell recordings of TRP channel currents were obtained from acutely trypsinized beta TC-6 cells and TRPM5-expressing HEK cells. The bath solution was Hank's Balanced Salt Solution, composed of (mM); 1.2 CaCl2, 0.5 MgCl2-6H2O, 0.4 MgSO4.7H2O, 5.3 KCl, 0.4 KH2PO4, 137.9 NaCl, 0.3 Na2HPO4.7H2O, and 5.5 D-Glucose, with 20 mM HEPES (Invitrogen), pH 7.4 (NaOH). The internal pipette solution contained, in mM: 135 glutamic acid, 8 NaCl, 9 CaCl2, 10 HEPES and 10 EGTA, pH 7.2 (CsOH) (Sigma). Calculated concentration of free calcium in internal solution was 1.5 μM (http://www.stanford.edu/˜cpatton/webmaxc/webmaxcS.htm). Recording pipettes were pulled using a Flaming/Brown Micropipette Puller (Sutter Instruments), from fire-polished borosilicate glass, to approximately 2 MΩ.
Voltage clamp recordings were obtained in whole cell mode using MultiClamp 700B amplifier and Digidata 1322A converter running on Clampex 9.2 software (Axon Instruments). Recordings were performed at room temperature. The recording protocol consisted of a ramp from −80 mV potential to +80 mV, followed by a step to −80 mV. Peak current was measured at three different voltages: −80 mV, after ramping to +80 mV, then following a return to −80 mV. Series resistance was automatically compensated immediately after the break-in, and the resulting capacitance measurements were used for current density calculations. […]

Setting [4] is: compared to glucose-dependent insulin production.

As for `COc1ccc(/C=N/NC(=O)C2CC2c2ccccc2)cc1OC` (centres unmarked) [Example 4, (E)-N′-(3,4-Dimethoxybenzylidene)-2-phenylcyclopropanecarbohydrazide], half-maximal inhibition in assay [1] (IC50) was put at 600 nM. In assay [2] (FIG. 6), the “effect on insulin secretion in combination with tolbutamide” value is “additive effects”. In addition, in assay [2] (setting [4]), the “Percent Enhancement of Insulin Secretion (10 μM)” value was 111%. Moreover, the “glucose dependence of stimulation of insulin release” value in assay [2] is listed as “increases insulin secretion in a glucose-dependent manner”. The “inhibition of calcium-activated current” value in assay [3] was “inhibition of the current”.
Regarding `COc1ccc(/C=N/NC(=O)COc2cccc(C)c2)cc1OC` [Example 8, (E)-N′-(3,4-Dimethoxybenzylidene)-2-(m-tolyloxy)acetohydrazide], inhibition in assay [1] was half-maximal at 3000 nM (IC50). The “Percent Enhancement of Insulin Secretion (10 μM)” value in assay [2] (setting [4]) worked out at 39%.
Taken in the same sequence, the figures for `COc1ccc(/C=N/NC(=O)CSc2cc(C)c3cccc(C)c3n2)cc1OC` [Example 24, (4,8-Dimethylquinolin-2-ylsulfanyl)acetic acid (3,4-dimethoxybenzylidene)hydrazide] were 400 nM and 207%.
Regarding `CCCCNC(=O)NS(=O)(=O)c1ccc(C)cc1` [Tolbutamide, tolbutamide, reference compound], the “Percent Enhancement of Insulin Secretion” value in assay [2] (tolbutamide tested at 30 μM, compared to glucose-dependent insulin production) came to 228%. Also, in assay [2], the “glucose dependence of stimulation of insulin release” value is given as “not sensitive to glucose levels”.
